Experimental data taken from patent publication US8546377B2 (AbbVie Inc., priority 2009, dated 2013).
Entries after “also recorded” stand apart in the source; their conditions may differ.

Experiments:
[1] = test system: PCP-induced hyperactivity; experiment: Phencyclidine (PCP)-induced hyperlocomotion in mice; format: in vivo; conditions: test compound ip 30 minutes before phencyclidine 2.0 mg/kg sc, FIG. 4
Experimental: (v) Assessment of Effects on Psychostimulant-Induced Hyperlocomotion in Mice
In humans, phencyclidine (PCP) is known to produce a syndrome of behavioral effects which have many characteristics in common with schizophrenia. Therefore, antagonism of PCP effects might be evidence for antipsychotic efficacy of a compound.
Male NMRI mice (5-week old, Janvier, France) or C57BL/6J mice (6-week old, Janvier, France) were group housed and allowed ad-libitum access to food and water. A 12 hour light/dark cycle was imposed with lights-on period between 0530 and 1730 hours. All testing occurred between 700 and 1300 hours. All procedures were approved by Abbott Institutional Animal Care and Use Committee (USA) or Animal Welfare Officer (Germany) and were conducted in accordance with the National Institutes of Health Guide for Care and Use of Laboratory Animals guidelines and applicable national laws in the facilities accredited by the Association for the Assessment and Accreditation of Laboratory Animal Care.
On the day of experiment, animals were brought from the animal facility into the experimental room and were allowed to acclimatize for at least 30 minutes. Animals were then placed in the test cages for a habituation period of 60 minutes. […] The analyzed data were: fine movements, ambulations and total movements (fine+ambulations). […]

[2] = target: T1, 5HT2C receptors (Homo sapiens, UniProt P28335); experiment: Human 5-HT2C functional assay in 1321N1 cells (intracellular calcium, FLIPR); format: cell-based; set-up: expressed in transfected cells; host or cells: 1321N1 cells
T1 sequence (P28335 33-458): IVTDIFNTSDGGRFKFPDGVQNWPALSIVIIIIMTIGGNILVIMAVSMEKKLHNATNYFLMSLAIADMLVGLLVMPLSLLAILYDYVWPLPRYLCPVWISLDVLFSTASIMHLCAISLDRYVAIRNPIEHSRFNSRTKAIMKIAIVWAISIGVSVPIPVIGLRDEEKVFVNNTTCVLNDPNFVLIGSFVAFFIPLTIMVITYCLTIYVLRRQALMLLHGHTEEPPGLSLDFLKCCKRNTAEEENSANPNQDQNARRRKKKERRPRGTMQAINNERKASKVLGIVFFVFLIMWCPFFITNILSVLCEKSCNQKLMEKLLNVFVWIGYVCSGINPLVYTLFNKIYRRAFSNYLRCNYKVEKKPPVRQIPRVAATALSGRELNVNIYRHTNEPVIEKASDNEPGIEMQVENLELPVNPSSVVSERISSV
Procedure, shortened: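 Intracellular calcium in 1321N1 cells stably transfected with human 5-HT2C, serum-starved overnight, Fluo4 AM-loaded with 1% probenecid. Compounds at 10^−10 to 10^−5 M final, alone or with 10^−9 M serotonin; peak FLIPR response. EC50 from four-parameter logistic fit; Emax as % of serotonin effect.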

[3] = target: T2, human serotonin 5-HT2c receptor (Homo sapiens, UniProt P28335); experiment: Human 5-HT2C receptor radioligand binding assay (agonist site, [125I](±)DOI); conditions: membranes of transfected CHO cells, 0.2 nM [125I](±)DOI, 15 minutes at 37° C.
T2 construct: expressed in transfected cells; host or cells: CHO cells (membrane homogenate)
T2 sequence (P28335 33-458): T1 sequence (P28335 33-458)
Procedure, shortened: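 Affinity for the agonist site measured by radioligand binding in transfected CHO cells expressing the human receptor, using [125I](±)DOI.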

`O=C1C[C@H]2CNCCN2c2ccccc2N1` [Example 2, (4aS)-1,2,3,4,4a,5-hexahydropyrazino[1,2-a][1,5]benzodiazepin-6(7H)-one] was tested. Which PCP-induced hyperactivity [1] did it give?
The PCP-induced hyperactivity was “attenuated PCP-induced hyperactivity significantly and in a dose dependent manner; also recorded: concentration-dependent effects of Example 2 attenuating the affect of phencyclidine (PCP)”.

And the EC50 ([2]; 1321N1 cells stably transfected, maximum calcium response, read-out: EC50 (μM), 5-HT2c Agonist Activity)?
Its EC50 is 0.0192 µM.

And the Emax ([2]; 1321N1 cells, percentage relative to the effect of serotonin, read-out: Emax (%), 5-HT2c Agonist Activity)?
The Emax was 90%.

And the Ki [3]?
Its Ki is 0.016 µM.
